# Patent US20260285850A1, “SUBSTITUTED OXAZOLIDINONES AND IMIDAZOLINONES AS HERBICIDES” (FMC CORPORATION, priority 2023, published 2026)
# Key:
# Type in all cases: in vivo
# rice (Oryza sativa) = assay: Test B flooded paddy test, visual plant response rating 0-100; conditions: 250 g ai/ha, Flood, applied to paddy water, evaluated after 13 days
# Method in brief: (§1)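 Each species was raised to two leaves before flooding to a 3 cm depth and dosing the water with compound. Injury was assessed by eye after 13 days under greenhouse conditions.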
# [1] = system: ducksalad (Heteranthera limosa); assay: as above; conditions: 250 g ai/ha, Flood, applied to paddy water, evaluated after 13 days
# Method in brief: as §1
# [2] = system: sedge, umbrella (small-flower umbrella sedge, Cyperus difformis); assay: as above; conditions: 250 g ai/ha, Flood, applied to paddy water, evaluated after 13 days
# Method in brief: as §1
# [3] = system: barnyardgrass (Echinochloa crusgalli); assay: as above; conditions: 250 g ai/ha, Flood, applied to paddy water, evaluated after 13 days
# Method in brief: as §1
# [4] = system: blackgrass (Alopecurus myosuroides); assay: Test A preemergence soil spray, visual injury rating 0-100; conditions: 10 days
# Method in brief: (§2)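 Plants in a loam and sand soil blend were treated with each test chemical, in a non-phytotoxic solvent system including surfactant, either sprayed on seeded soil before emergence or applied after emergence at the one- to two-leaf stage. Ten days later in the greenhouse, plants were compared with untreated controls and visually rated from 0 (no effect) to 100 (complete control).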
# [5] = system: barnyardgrass (Echinochloa crus-galli); assay: as above; conditions: 10 days
# Method in brief: as §2
# [6] = system: ryegrass, Italian (italian ryegrass, Lolium multiflorum); assay: as above; conditions: 10 days
# Method in brief: as §2
# [7] = system: wheat (Triticum aestivum); assay: as above; conditions: 10 days
# Method in brief: as §2
# kochia (Bassia scoparia) [8] = assay: as above; conditions: 10 days
# Method in brief: as §2
# corn (Zea mays) [9] = assay: as above; conditions: 10 days
# Method in brief: as §2
# [10] = system: ragweed (common ragweed, Ambrosia artemisiifolia); assay: as above; conditions: 10 days
# Method in brief: as §2
# [11] = system: oat, wild (wild oat, Avena fatua); assay: as above; conditions: 10 days
# Method in brief: as §2
# [12] = system: palmer (palmer amaranth, palmer pigweed, Amaranthus palmeri); assay: as above; conditions: 10 days
# Method in brief: as §2
# soybean (Glycine max) [13] = assay: as above; conditions: 10 days
# Method in brief: as §2
# [14] = system: green foxtail (Setaria viridis); assay: as above; conditions: 10 days
# Method in brief: as §2
# [15] = system: blackgrass (Alopecurus myosuroides); assay: Test A postemergence application, visual injury rating 0-100
# Method in brief: as §2
# [16] = system: galium (catchweed bedstraw, Galium aparine); assay: as above
# Method in brief: as §2
# [17] = system: barnyardgrass (Echinochloa crus-galli); assay: as above
# Method in brief: as §2
# [18] = system: ryegrass, Italian (italian ryegrass, Lolium multiflorum); assay: as above
# Method in brief: as §2
# [19] = system: wheat (Triticum aestivum); assay: as above
# Method in brief: as §2
# kochia (Bassia scoparia) [20] = assay: as above
# Method in brief: as §2
# corn (Zea mays) [21] = assay: as above
# Method in brief: as §2
# [22] = system: horseweed (Erigeron canadensis); assay: as above
# Method in brief: as §2
# [23] = system: ragweed (common ragweed, Ambrosia artemisiifolia); assay: as above
# Method in brief: as §2
# [24] = system: oat, wild (wild oat, Avena fatua); assay: as above
# Method in brief: as §2
# [25] = system: palmer (palmer amaranth, palmer pigweed, Amaranthus palmeri); assay: as above
# Method in brief: as §2
# soybean (Glycine max) [26] = assay: as above
# Method in brief: as §2
# [27] = system: green foxtail (Setaria viridis); assay: as above
# Method in brief: as §2
# [28] = 62 g ai/ha, 0 = no effect, 100 = complete control
# [29] = 62 g ai/ha, postemergence, 10 days, 0 = no effect, 100 = complete control
# [30] = Postemergence, 16 g ai/ha, greenhouse 10 days, 0 no effect, 100 complete control
compound,measurement,setting,value
CC1(C(=O)NC2CC=C(C(=O)NS(=O)(=O)c3ccccc3)C2)CN(c2cc(F)cc(F)c2)C(=O)O1 (racemic) [Compound 104],"Plant response rating, Rice (0 to 100 scale, 0 is no effect and 100 is complete control)",rice (Oryza sativa),0
same,"Plant response rating, Ducksalad (0 to 100 scale, 0 is no effect and 100 is complete control)",[1],0
same,"Plant response rating, Sedge, Umbrella (0 to 100 scale, 0 is no effect and 100 is complete control)",[2],0
same,"Plant response rating, Barnyardgrass (0 to 100 scale, 0 is no effect and 100 is complete control)",[3],0
same,Blackgrass plant response rating,"[4]; 16 g ai/ha, 0 to 100 scale",0
same,Blackgrass plant response rating (0-100),[4]; [28],0
same,Barnyardgrass plant response rating,"[5]; 16 g ai/ha, 0 to 100 scale",0
same,Barnyardgrass plant response rating (0-100),[5]; [28],20
same,"Ryegrass, Italian plant response rating","[6]; 16 g ai/ha, 0 to 100 scale",0
same,"Ryegrass, Italian plant response rating (0-100)",[6]; [28],20
same,Wheat plant response rating,"[7]; 16 g ai/ha, 0 to 100 scale",0
same,Wheat plant response rating (0-100),[7]; [28],20
same,Kochia plant response rating,"kochia (Bassia scoparia) [8]; 16 g ai/ha, 0 to 100 scale",0
same,Kochia plant response rating (0-100),kochia (Bassia scoparia) [8]; [28],50
same,Corn plant response rating,"corn (Zea mays) [9]; 16 g ai/ha, 0 to 100 scale",0
same,Corn plant response rating (0-100),corn (Zea mays) [9]; [28],0
same,Ragweed plant response rating,"[10]; 16 g ai/ha, 0 to 100 scale",20
same,Ragweed plant response rating (0-100),[10]; [28],20
same,"Oat, Wild plant response rating","[11]; 16 g ai/ha, 0 to 100 scale",0
same,"Oat, Wild plant response rating (0-100)",[11]; [28],0
same,"Pigweed, Palmer plant response rating","[12]; 16 g ai/ha, 0 to 100 scale",0
same,"Pigweed, Palmer plant response rating (0-100)",[12]; [28],30
same,Soybean plant response rating,"soybean (Glycine max) [13]; 16 g ai/ha, 0 to 100 scale",0
same,Soybean plant response rating (0-100),soybean (Glycine max) [13]; [28],0
same,"Foxtail, Green plant response rating","[14]; 16 g ai/ha, 0 to 100 scale",0
same,"Foxtail, Green plant response rating (0-100)",[14]; [28],30
same,Blackgrass plant response rating (0-100),[15]; [29],70
same,Blackgrass plant response rating (0 to 100 scale),[15]; [30],0
same,Galium plant response rating (0-100),[16]; [29],70
same,Galium plant response rating (0 to 100 scale),[16]; [30],30
same,Barnyardgrass plant response rating (0-100),[17]; [29],100
same,Barnyardgrass plant response rating (0 to 100 scale),[17]; [30],50
same,"Ryegrass, Italian plant response rating (0-100)",[18]; [29],70
same,"Ryegrass, Italian plant response rating (0 to 100 scale)",[18]; [30],50
same,Wheat plant response rating (0-100),[19]; [29],90
same,Wheat plant response rating (0 to 100 scale),[19]; [30],30
same,Kochia plant response rating (0-100),kochia (Bassia scoparia) [20]; [29],90
same,Kochia plant response rating (0 to 100 scale),kochia (Bassia scoparia) [20]; [30],30
same,Corn plant response rating (0-100),corn (Zea mays) [21]; [29],90
same,Corn plant response rating (0 to 100 scale),corn (Zea mays) [21]; [30],0
same,Horseweed plant response rating (0-100),[22]; [29],30
same,Horseweed plant response rating (0 to 100 scale),[22]; [30],0
same,Ragweed plant response rating (0-100),[23]; [29],60
same,Ragweed plant response rating (0 to 100 scale),[23]; [30],40
same,"Oat, Wild plant response rating (0-100)",[24]; [29],30
same,"Oat, Wild plant response rating (0 to 100 scale)",[24]; [30],0
same,"Pigweed, Palmer plant response rating (0-100)",[25]; [29],90
same,"Pigweed, Palmer plant response rating (0 to 100 scale)",[25]; [30],80
same,Soybean plant response rating (0-100),soybean (Glycine max) [26]; [29],60
same,Soybean plant response rating (0 to 100 scale),soybean (Glycine max) [26]; [30],20
same,"Foxtail, Green plant response rating (0-100)",[27]; [29],90
same,"Foxtail, Green plant response rating (0 to 100 scale)",[27]; [30],40
